Data set [1] concerns HEK293 cells. Nature of the data set: Toxicity to HEK293 cells (MTT). The settings on record: for 100 μM absorbance / 100 μM relative viability: HEK293, 100 μM; for 100 μM absorbance / 100 μM relative viability / 500 μM absorbance / 500 μM relative viability: 12 hours; for 100 μM absorbance / 500 μM absorbance: 570 nm; for 100 μM relative viability / 500 μM relative viability: control = 1; for 500 μM absorbance / 500 μM relative viability: HEK293, 500 μM; for EC50: HEK293, 2′-deoxy-2′-fluoro-nucleosides and nucleotides. The format is cell-based. On the procedure: 1. HEK293 cells were seeded in 96-well plate at a density of 25,000 cells/well the day before the experiment starts;
2. After the cells reach 50˜60% confluency, media was taken out, and 100 μL of fresh media was added to each well;
3. F-derivatives were plated at 100 and 500 μM (in duplicates) concentrations;
4. After 12 hours' incubation at 37° C., the media was taken out, 100 μL of fresh media was added to each well along with 20 μL of 5 mg/mL of MTT solution (in PBS);
5. After 1.5 hours' incubation at 37° C., media was taken out and 100 μL of DMSO was added to each well, the plate was mixed on shaker for 5 mins;
(§1) Absorbance was measured at 570 nm.
(§2) Assay for Determining Toxicity to HEK293 and Neuro2A Cells • 1. HEK293 and Neuro2A cells were seeded in 96-well plate at a density of 25,000 cells/well the day before the experiment starts; • 2. After the cells reach 50˜60% confluency, media was taken out, and 100 μL of fresh media was added to each well; • 3. Cl-derivatives were plated at 100 and 500 μM (in duplicates) concentrations; • 4. After 12 hours' incubation at 37° C., the media was taken out, 100 μL of fresh media was added to each well along with 20 μL of 5 mg/mL of MTT solution (in PBS); • 5. After 2 hours' incubation at 37° C., media was taken out and 100 μL of DMSO was added to each well, the plate was mixed on shaker for 5 mins; • 6. Absorbance was measured at 570 nm.

The subject of data set [2] is Neuro2A cells. As to the kind of experiment: Toxicity to Neuro2A cells (MTT). The format is cell-based. The conditions noted are these: for 100 μM absorbance / 100 μM relative viability / 500 μM absorbance / 500 μM relative viability: 12 hours; for 100 μM absorbance / 500 μM absorbance: 570 nm; for EC50: 2′-deoxy-2′-fluoro-nucleosides and nucleotides. Here is the method:
6. Neuro2A cells were seeded in 96-well plate at a density of 25,000 cells/well the day before the experiment starts;
7. After the cells reach 50˜60% confluency, media was taken out, and 100 μL of fresh media was added to each well;
8. […]
9. After 12 hours' incubation at 37° C., the media was taken out, 100 μL of fresh media was added to each well along with 20 μL of 5 mg/mL of MTT solution (in PBS);
10. After 1.5 hours' incubation at 37° C., media was taken out and 100 μL of DMSO was added to each well, the plate was mixed on shaker for 5 mins;
as §1
as §2, with “Cl-derivatives were plated at 100 and 500 μM (in duplicates) concentrations; • 4.” left out

Data set [3] has as its target T1, SirT3 (Homo sapiens, UniProt Q9NTG7).
T1 sequence (Q9NTG7 1-399): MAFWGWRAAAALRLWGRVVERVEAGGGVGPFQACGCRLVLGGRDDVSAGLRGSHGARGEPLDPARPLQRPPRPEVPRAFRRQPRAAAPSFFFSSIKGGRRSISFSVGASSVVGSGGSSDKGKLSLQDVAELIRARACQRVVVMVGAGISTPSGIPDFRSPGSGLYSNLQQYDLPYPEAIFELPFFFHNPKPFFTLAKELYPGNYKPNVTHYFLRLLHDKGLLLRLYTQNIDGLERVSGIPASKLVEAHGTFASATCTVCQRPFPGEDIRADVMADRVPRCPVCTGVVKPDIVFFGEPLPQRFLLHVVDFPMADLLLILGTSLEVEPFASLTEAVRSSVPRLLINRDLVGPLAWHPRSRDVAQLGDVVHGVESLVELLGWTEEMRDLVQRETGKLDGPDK
Nature of the data set: SirT3 activity assay (HPLC of 2′- and 3′-AADPR). The format is biochemical. Here is the method: Reactions containing 800 μM NAD^+, 500 μM H3 peptide, and 100 mM phosphate buffer at pH 7.5, with varying concentrations of 2′-deoxy-2′-fluoro-nucleosides or nucleotides were initiated by addition of SirT3 enzyme to a concentration of 13.9 μM. Reactions were incubated for 2 hours at 37° C. and quenched by addition of trifluoroacetic acid to pH 2. After centrifugation to remove precipitates, reactions were injected on HPLC for activity analysis. Production of 2′- and 3′-AADPR were analyzed at 260 nm.
SirT3 Activity Assay: Reactions containing 800 μM NAD^+, 500 μM H3 peptide, and 100 mM phosphate buffer at pH 7.5, with varying concentrations of 2′-deoxy-2′-chloro-nucleosides were initiated by addition of SirT3 enzyme to a concentration of 13.9 μM. Reactions were incubated for 2 hours at 37° C. and quenched by addition of trifluoroacetic acid to pH 2. After centrifugation to remove precipitates, reactions were injected on HPLC for activity analysis. Production of 2′- and 3′-AADPR were analyzed at 260 nm.

Data set [4] concerns the target T2, SirT2 (Homo sapiens, UniProt Q8IXJ6).
T2 sequence (Q8IXJ6 1-389): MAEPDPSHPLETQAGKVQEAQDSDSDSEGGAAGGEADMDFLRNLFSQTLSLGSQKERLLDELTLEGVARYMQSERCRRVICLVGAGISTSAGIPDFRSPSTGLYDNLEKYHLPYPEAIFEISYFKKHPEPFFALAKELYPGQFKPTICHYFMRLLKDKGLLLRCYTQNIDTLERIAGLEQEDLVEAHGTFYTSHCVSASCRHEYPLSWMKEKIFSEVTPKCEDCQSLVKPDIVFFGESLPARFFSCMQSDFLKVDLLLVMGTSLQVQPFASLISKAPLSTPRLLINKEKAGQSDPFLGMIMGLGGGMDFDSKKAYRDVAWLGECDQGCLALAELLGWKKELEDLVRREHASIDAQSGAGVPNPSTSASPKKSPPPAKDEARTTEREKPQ
As to the kind of experiment: SirT2 activity assay (HPLC of 2′- and 3′-AADPR). The format is biochemical. The settings on record: at 1 mM; read-out: SirT2 % inhibited. Here is the method: Reactions containing 800 μM NAD^+, 500 μM H3 peptide, and 100 mM phosphate buffer at pH 7.5, with varying concentrations of 2′-deoxy-2′-fluoro-nucleosides or nucleotides were initiated by addition of SirT2 enzyme to a concentration of 16.6 μM. Reactions were incubated for 45 mins at 37° C. and quenched by addition of trifluoroacetic acid to pH 2. After centrifugation to remove precipitates, reactions were injected on HPLC for activity analysis. Production of 2′- and 3′-AADPR were analyzed at 260 nm.
SirT2 Activity Assay: Reactions containing 800 μM NAD^+, 500 μM H3 peptide, and 100 mM phosphate buffer at pH 7.5, with varying concentrations of 2′-deoxy-2′-chloro-nucleosides were initiated by addition of SirT2 enzyme to a concentration of 16.6 μM. Reactions were incubated for 45 mins at 37° C. and quenched by addition of trifluoroacetic acid to pH 2. After centrifugation to remove precipitates, reactions were injected on HPLC for activity analysis. Production of 2′- and 3′-AADPR were analyzed at 260 nm.

The mark [5] stands for this setting: MTT 2 hours, chloro-nucleosides.
Where [6] appears, read: control = 1, chloro-nucleosides.

Here are results for five compounds from US9790252B2, “2-fluorinated riboses and arabinoses and methods of use and synthesis” (CORNELL UNIVERSITY, priority 2009, dated 2017).

In general, EC50 refers to the concentration that produces a half-maximal response. In general, Ki refers to a dissociation constant, usually derived from enzyme kinetics or from competition with a known ligand. The low end stands for tighter binding, the high end for weaker binding.

Take “2′-deoxy-2′-fluoro-ribo-NAD^+ [ribo-F-NAD]”: in data set [1] (MTT 1.5 hours), the “100 μM absorbance” value came to 1.4985 and the “500 μM absorbance” value is on record as 1.384. In addition, in data set [1], the “100 μM relative viability” value worked out at 0.6592, the “500 μM relative viability” value worked out at 0.6087 and the EC50 is 1020 µM. Also, in data set [2] (MTT 1.5 hours), the “100 μM absorbance” value came to 1.6122 and the “500 μM absorbance” value is listed as 0.6455. In data set [2] (control = 1), the “100 μM relative viability” value stood at 0.663 and the “500 μM relative viability” value is given as 0.265. The EC50 in data set [2] was determined as 350 µM.
As to `NC(=O)c1ccc[n+]([C@@H]2O[C@H](COP(=O)([O-])OP(=O)(O)OC[C@H]3O[C@@H](n4cnc5c(N)ncnc54)[C@H](O)[C@@H]3O)[C@@H](O)[C@@H]2F)c1` [ara-F-NAD, 2′-deoxy-2′-fluoro-arabino-NAD^+], in data set [1] (MTT 1.5 hours), the “100 μM absorbance” value came out at 1.523 and the “500 μM absorbance” value is 1.302. Besides, in data set [1], the “100 μM relative viability” value was determined as 0.6699, the “500 μM relative viability” value worked out at 0.5729 and it took 1000 µM to reach a half-maximal effect (EC50). In data set [2] (MTT 1.5 hours), the “100 μM absorbance” value is on record as 2.2482 and the “500 μM absorbance” value amounted to 1.7012. In data set [2] (control = 1), the “100 μM relative viability” value was 0.924 and the “500 μM relative viability” value was 0.699. The compound further came in with an EC50 in data set [2] of 1500 µM.
Turning to `NC(=O)c1ccc[n+]([C@H]2O[C@H](CO)C(O)C2Cl)c1` (stereo partly drawn) [α-ara-Cl-NR, 1-(2′-deoxy-2′-chloro-arabinofuranosyl)-nicotinamide], the “100 μM absorbance” value amounted to 2.09 in data set [1] (setting [5]) and 2.575 in data set [2] (setting [5]). The “100 μM relative viability” value in data set [1] (chloro-nucleosides) was 0.8601; in data set [2] (setting [6]), 1.089. Besides, the entries for the “500 μM absorbance” value in data set [1] (setting [5]) and in data set [2] (setting [5]) were 1.77 and 2.34, respectively. Moreover, the “500 μM relative viability” value in data set [1] (chloro-nucleosides) came to 0.7284; in data set [2] (setting [6]) it was 0.9894. Further, the “kills % of HEK293 cells” value in data set [1] (HEK293, at 500 μM) is reported as “kills 30% at 500 μM”. In addition, the “toxicity to Neuro2A (in words)” value in data set [2] (at 500 μM) is “not toxic at 500 μM”.
`NC(=O)c1ccc[n+]([C@H]2O[C@H](CO)C(O)[C@@H]2Cl)c1` (stereo partly drawn) [α-ribo-Cl-NR, 1-(2-deoxy-2-chloro-D-ribofuranosyl)-nicotinamide]: the inhibition at 1000 µM in data set [3] (at 1 mM, read-out: SirT3 % inhibited) amounted to 86%; in data set [4], 50%.
Turning to `NC(=O)c1ccc[n+]([C@@H]2O[C@H](CO)C(O)[C@@H]2Cl)c1` (stereo partly drawn) [β-ribo-Cl-NR, 1-(2-deoxy-2-chloro-D-ribofuranosyl)-nicotinamide], in data set [3] (800 μM NAD+, 500 μM H3 peptide, pH 7.5, 2 hours at 37° C.), the affinity, expressed as Ki, was 82 µM. In addition, the inhibition at 1000 µM in data set [4] came out at 43%.
